In patent publication US20220071952A1, “METHODS OF TREATING AND PREVENTING HEPATOTOXICITY” (Natreon, Inc., priority 2020, published 2022):

Legend:
[1] = test system: alcohol-induced hepatotoxicity in mice; experiment: Alcohol (ethanol)-induced hepatotoxicity in mice, biochemical and physical parameters (Example III); format: in vivo, Swiss Albino mice; conditions: for Relative organ weight (w.r.t body weight) Kidney / Relative organ weight (w.r.t body weight) Liver / ACP / ALP / ALT(SGPT) / AST(SGOT) / Total Protein: 10 mg/kg p.o. + alcohol 5 g/kg p.o. twice daily, mean ± SD; for ACP / ALP / ALT(SGPT) / AST(SGOT) / Total Protein: plasma
Description: Swiss Albino male and female mice weighing approximately 30±5 g, 2 month old mice were obtained from National Research Institute of Ayurveda for Drug Development (Govt. of India), Kolkata, and were housed in polypropylene cages at 22±3° C., relative air humidity of 45 to 55%, with 12.00 hr light & dark cycle (lighting on from 6:00 AM to 6:00 PM). Mice were provided a standard pellet chow diet (carbohydrate 65.5%, protein 17.6%, fat 6.6%) and distilled water ad libitum. The mice were acclimatized for one week in the laboratory conditions, before being used in the experiment. All experiments were conducted between 10.00 hr and 14.00 hr. Principles of laboratory animals care (NIH publication no. 85-23, revised 1985) were followed.
In the present study simultaneous administration of alcohol (ethanol) and treatment with 3-OH-DBP and 3,8-(OH)2-DBP was done.
Vehicle control animals (“Con Veh”) were administered 0.3% CMC orally for 15 days.
Animals receiving ethanol (“Alc+0.3 CMC”, “3-OH-DBP+Alc”, “3,8-(OH)2-DBP+Alc”) were administered ethanol in 0.3% CMC orally as discussed above.
Results were expressed in terms of mean±SD (n=8). The data were subjected to one way ANOVA followed by Tukey's test using GraphPad Prism 4.0 software to establish statistical significance (*p<0.05, **p<0.01, ***p<0.001 vs. vehicle control; # p<0.05, ## p<0.01, ### p<0.001 vs. animals administered ethanol only).

[2] = test system: CCl4-induced hepatotoxicity in mice; experiment: Synergistic hepatoprotective activity of DBPs against CCl4-induced hepatotoxicity (Example IV); conditions: for ACP / ALP / ALT / AST / Total Protein: CCl4 1 ml/kg, mean ± SEM, n=4
[3] = test system: alcohol-induced hepatotoxicity in mice; experiment: Synergistic hepatoprotective activity of DBPs against alcohol-induced hepatotoxicity (Example IV); conditions: for ACP / ALP / ALT / AST / Total Protein: alcohol 5 g/kg, mean ± SEM, n=4
Description: Hepatotoxicity was induced by oral administration of alcohol (ethanol: 5 g/kg) from stock 400 mg/ml twice daily for 15 days.
3-OH-DBP and 3,8-(OH)2-DBP were each separately suspended in 0.3% CMC and administered at a dose of 10 mg/kg body weight per orally for 15 days. During the 15 days treatment, body weight, food intake, and water intake were monitored at regular intervals. Following 15 days of treatment physical parameters (relative organ weight) and biochemical parameters (plasma total protein content, ALT, AST, ALP, and ACP) were studied.
3-OH-DBP (2 mg/kg body weight, 10 mg/kg body weight);
3,8-(OH)2-DBP (10 mg/kg body weight, 50 mg/kg body weight); and

[4] = female mice (Table 14), 10 mg/kg p.o.
[5] = male mice (Table 13), 10 mg/kg p.o.
[6] = female mice, doses 3-OH-DBP 2, 3,8-(OH)2-DBP 10, 1:5 combination 12 mg/kg b.w.
[7] = female mice, doses 3-OH-DBP 10, 3,8-(OH)2-DBP 50, 1:5 combination 60 mg/kg b.w.
[8] = male mice, doses 3-OH-DBP 2, 3,8-(OH)2-DBP 10, 1:5 combination 12 mg/kg b.w.
[9] = male mice, doses 3-OH-DBP 10, 3,8-(OH)2-DBP 50, 1:5 combination 60 mg/kg b.w.
[10] = female mice, doses 3-OH-DBP 2, 3,8-(OH)2-DBP 10, combination 12 mg/kg b.w.
[11] = female mice, doses 3-OH-DBP 10, combination 60 mg/kg b.w.

Compound: O=c1oc2cc(O)ccc2c2ccccc12 [3-OH-DBP, 3-hydroxy-dibenzo-alpha-pyrone]
- hepatoprotective activity against alcohol-induced hepatotoxicity ([1]; 10 mg/kg p.o., 15 days): significant hepatoprotective activity
- effect on alcohol-induced increased plasma ACP [1, 4]: significantly (p<0.05) attenuated
- effect on alcohol-induced increased plasma ALT [1, 4]: significantly (p<0.001) attenuated
- effect on alcohol-induced increased plasma AST [1, 4]: significantly (p<0.05; p<0.01) attenuated
- effect on plasma ALP level compared with ALC group [1, 4]: significantly (p<0.05) decreased
- Relative organ weight (w.r.t body weight) Kidney ([1]; female mice, 15 days): 0.013 ± 0.001^
- Relative organ weight (w.r.t body weight) Liver ([1]; female mice, 15 days): 0.052 ± 0.011^
- ACP ([1]; female mice, 15 days): 5.58 ± 2.19^# IU/L
- ALP ([1]; female mice, 15 days): 32.95 ± 13.06^# IU/L
- ALT(SGPT) ([1]; female mice, 15 days): 6.72 ± 2.88^## IU/L
- AST(SGOT) ([1]; female mice, 15 days): 6.19 ± 1.94^# IU/L
- Total Protein ([1]; female mice, 15 days): 2.75 ± 0.167 g/dL
- effect on alcohol-induced increased plasma ACP [1, 5]: significantly (p<0.05) attenuated
- effect on alcohol-induced increased plasma ALT [1, 5]: significantly (p<0.05) attenuated
- effect on alcohol-induced increased plasma AST [1, 5]: significantly (p<0.05) attenuated
- Relative organ weight (w.r.t body weight) Kidney ([1]; male mice, 15 days): 0.014 ± 0.001
- Relative organ weight (w.r.t body weight) Liver ([1]; male mice, 15 days): 0.044 ± 0.001
- ACP ([1]; male mice, 15 days): 5.36 ± 2.34^# IU/L
- ALP ([1]; male mice, 15 days): 20.20 ± 6.18^# IU/L
- ALT(SGPT) ([1]; male mice, 15 days): 11.93 ± 4.364^# IU/L
- AST(SGOT) ([1]; male mice, 15 days): 5.83 ± 1.75^# IU/L
- Total Protein ([1]; male mice, 15 days): 2.75 ± 0.167 g/dL
- hepatoprotective activity (conclusion, Tables 19 and 20) ([2]; CCl4-induced hepatotoxicity, male and female mice): hepatoprotective activity in a dose dependent manner
- ACP [2, 6]: 48 ± 5.6 (b) U/L
- ALP [2, 6]: 75 ± 13 (b) IU/L
- ALT [2, 6]: 81 ± 7 (b) IU/L
- AST [2, 6]: 90 ± 4.2 (b) IU/L
- Total Protein [2, 6]: 4.7 ± 0.59 g/dL
- ACP [2, 7]: 55 ± 4.1 (e) U/L
- ALP [2, 7]: 78 ± 6.9 (e) IU/L
- ALT [2, 7]: 75 ± 7.6*(e) IU/L
- AST [2, 7]: 69 ± 4.9 (e) IU/L
- Total Protein [2, 7]: 7.2 ± 0.23 g/dL
- ACP, difference in values from CCl4 treated mice [2, 6]: A = (a-b = 32) U/L
- ALP, difference in values from CCl4 treated mice [2, 6]: A = (a-b = 15) IU/L
- ALT, difference in values from CCl4 treated mice [2, 6]: A = (a-b = 6) IU/L
- AST, difference in values from CCl4 treated mice [2, 6]: A = (a-b = 15) IU/L
- ACP, difference in values from CCl4 treated mice [2, 7]: D = (a-e = 26) U/L
- ALP, difference in values from CCl4 treated mice [2, 7]: D = (a-e = 12) IU/L
- ALT, difference in values from CCl4 treated mice [2, 7]: D = (a-e = 12) IU/L
- AST, difference in values from CCl4 treated mice [2, 7]: D = (a-e = 36) IU/L
- ACP [2, 8]: 49 ± 3.6***,#( b) U/L
- ALP [2, 8]: 79 ± 12#(b) IU/L
- ALT [2, 8]: 72 ± 3.4**(b) IU/L
- AST [2, 8]: 70 ± 4##(b) IU/L
- Total Protein [2, 8]: 5.6 ± 0.37 g/dL
- ACP [2, 9]: 47 ± 2.6 (e) U/L
- ALP [2, 9]: 78 ± 6.9#(e) IU/L
- ALT [2, 9]: 67 ± 3.6 (e) IU/L
- AST [2, 9]: 69 ± 2.7 (e) IU/L
- Total Protein [2, 9]: 6.3 ± 0.46 g/dL
- ACP, difference in values from CCl4 treated mice [2, 8]: A = (a-b = 37) U/L
- ALP, difference in values from CCl4 treated mice [2, 8]: A = (a-b = 63) IU/L
- ALT, difference in values from CCl4 treated mice [2, 8]: A = (a-b = 8) IU/L
- AST, difference in values from CCl4 treated mice [2, 8]: A = (a-b = 33) IU/L
- ACP, difference in values from CCl4 treated mice [2, 9]: D = (a-e = 39) U/L
- ALP, difference in values from CCl4 treated mice [2, 9]: D = (a-e = 64) IU/L
- ALT, difference in values from CCl4 treated mice [2, 9]: D = (a-e = 13) IU/L
- AST, difference in values from CCl4 treated mice [2, 9]: D = (a-e = 34) IU/L
- hepatoprotective activity (conclusion, Tables 17 and 18) ([3]; alcohol-induced hepatotoxicity, male and female mice): hepatoprotective activity in a dose dependent manner
- ACP [3, 10]: 19.3 ± 1 (b) U/L
- ALP [3, 10]: 106.6 ± 8 (b) ^ IU/L
- ALT [3, 10]: 85.31 ± 7.89 (b) IU/L
- AST [3, 10]: 54.81 ± 8.13 (b)^ IU/L
- Total Protein [3, 10]: 7.21 ± 0.36 g/dL
- ACP [3, 11]: 12.1±***,^# (e) U/L
- ALP [3, 11]: 79 ± 11 (e) IU/L
- ALT [3, 11]: 57.15 ± 3.46 (e) IU/L
- AST [3, 11]: 41.11 ± 6.98 (e)^ IU/L
- Total Protein [3, 11]: 6.53 ± 0.32 g/dL
- ACP, difference in values from alcohol treated mice [3, 10]: A = (a-b = 1.97) U/L
- ALP, difference in values from alcohol treated mice [3, 10]: A = (a-b = 33.4) IU/L
- ALT, difference in values from alcohol treated mice [3, 10]: A = (a-b = 3.53) IU/L
- AST, difference in values from alcohol treated mice [3, 10]: A = (a-b = 14.14) IU/L
- ACP, difference in values from alcohol treated mice [3, 11]: D = (a-e = 8.9) U/L
- ALP, difference in values from alcohol treated mice [3, 11]: D = (a-e = 61) IU/L
- ALT, difference in values from alcohol treated mice [3, 11]: D = (a-e = 31.69) IU/L
- AST, difference in values from alcohol treated mice [3, 11]: D = (a-e = 27.84) IU/L
- ACP [3, 8]: 13.3 ± 1.03 (b) U/L
- ALP [3, 8]: 90.2 ± 6.68 (b) IU/L
- ALT [3, 8]: 74.9 ± 1.66 (b) IU/L
- AST [3, 8]: 46.5 ± 3.19 (b) IU/L
- Total Protein [3, 8]: 6.68 ± 0.43 g/dL
- ACP [3, 9]: 11.6 ± 0.89 (e) U/L
- ALP [3, 9]: 83.4 ± 4.87 (e) IU/L
- ALT [3, 9]: 65.4 ± 2.59(e) IU/L
- AST [3, 9]: 39.9 ± 5.30 (e) IU/L
- Total Protein [3, 9]: 8.24 ± 0.43 g/dL
- ACP, difference in values from alcohol treated mice [3, 8]: A = (a-b = 5.3) U/L
- ALP, difference in values from alcohol treated mice [3, 8]: A = (a-b = 43.8) IU/L
- ALT, difference in values from alcohol treated mice [3, 8]: A = (a-b = 31.1) IU/L
- AST, difference in values from alcohol treated mice [3, 8]: A = (a-b = 13.5) IU/L
- ACP, difference in values from alcohol treated mice [3, 9]: D = (a-e = 7) U/L
- ALP, difference in values from alcohol treated mice [3, 9]: D = (a-e = 50.6) IU/L
- ALT, difference in values from alcohol treated mice [3, 9]: D = (a-e = 40.6) IU/L
- AST, difference in values from alcohol treated mice [3, 9]: D = (a-e = 20.8) IU/L
